Tests used:
[1] = test system: caterpillars of the armyworm (Spodoptera frugiperda); experiment: Spodoptera frugiperda test (cabbage leaves, immersion); type: in vivo; settings: cabbage leaves immersed
Description: An appropriate preparation of active compound is prepared by mixing 1 part by weight of active compound with the stated amounts of solvent and emulsifier and diluting the concentrate with emulsifier-containing water to the desired concentration.
Cabbage leaves (Brassica oleracea) are treated by immersion into a preparation of active compound at the desired concentration and, are populated with caterpillars of the armyworm (Spodoptera frugiperda) while the leaves are still wet.
After the desired time the effect in % is determined. 100% means that all of the caterpillars have been killed; 0% means that no caterpillars have been killed.
Cabbage leaves (Brassica oleracea) are treated by immersion into a preparation of active compound at the desired concentration and are populated with caterpillars of the armyworm (Spodoptera frugiperda) while the leaves are still wet.

[2] = log P determination by HPLC on reverse-phase column (EEC Directive 79/831 Annex V.A8); type: physicochemical
How it was run: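 Reverse-phase C18 HPLC at 43 °C, following EEC Directive 79/831 Annex V.A8. Acidic LC-MS used pH 2.7 eluents (0.1% aqueous formic acid and acetonitrile with 0.1% formic acid) on a 10–95% acetonitrile linear gradient. Log P was interpolated linearly from retention times against unbranched C3–C16 alkan-2-ones of known log P.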

[3] = HPLC, reverse-phase column (C 18), 43° C., acidic range pH 2.7

Row | logP [2, 3] | SMILES | Kill level after 7 d in % ([1]; 100 g/ha) | logP ([2]; HPLC on reverse-phase column) | further results
1 | – | CNC(=O)c1cc(Cl)cc(C)c1NC(=O)c1cc(Cn2nc(C(F)(F)F)cc2C(F)(F)F)nn1-c1ncccc1Cl [I-1-1, 5-(3,5-Bis-trifluoromethylpyrazol-1-ylmethyl)-2-(3-chloropyridin-2-yl)-2H-pyrazole-3-carboxylic acid 4-chloro-2-methyl-6-methylcarbamoylphenyl amide] | 100% | – | chromatographic logP ([2]; pH 2.7): 3.67
2 | – | Cc1cc(Cl)cc(C(=O)NC(C)C)c1NC(=O)c1cc(Cn2nc(C(F)(F)F)cc2C(F)(F)F)nn1-c1ncccc1Cl [I-1-2] | 100% | 4.08 | –
3 | – | Cc1cc(Cl)cc(C(=O)NC(C)C)c1NC(=O)c1cc(Cn2nc(C(F)(F)F)nc2C(F)(F)F)nn1-c1ncccc1Cl [I-1-5] | 100% | 3.88 | Kill level after 7 d in % ([1]; 0.8 g/ha): 100%
4 | – | Cc1cc(Cl)cc(C(=O)NC(C)C)c1NC(=O)c1cc(Cn2ccc(C(F)(F)F)n2)nn1-c1ncccc1Cl [I-1-6] | 100% | 3.27 | Kill level after 7 d in % ([1]; 0.8 g/ha): 100%
5 | – | Cc1cc(Cl)cc(C(=O)NC(C)C)c1NC(=O)c1cc(Cn2cc(F)cn2)nn1-c1ncccc1Cl [I-1-7] | 100% | 2.70 | –
6 | – | Cc1cc(Cl)cc(C(=O)NC(C)C)c1NC(=O)c1cc(Cn2cc(C#N)cn2)nn1-c1ncccc1Cl [I-1-8] | 100% | 2.57 | Kill level after 7 d in % ([1]; 0.8 g/ha): 100%
7 | – | Cc1cc(Cl)cc(C(=O)NC(C)C)c1NC(=O)c1cc(Cn2cccn2)nn1-c1ncccc1Cl [I-1-9] | 100% | 2.45 | –
8 | – | Cc1cc(Cl)cc(C(=O)NC(C)C)c1NC(=O)c1cc(Cn2nc(C(F)(F)F)cc2C(F)(F)F)nn1-c1ccccc1Cl [I-1-10] | 100% | 4.70 | –
9 | – | CNC(=O)c1cc(Cl)cc(C)c1NC(=O)c1cc(Cn2nc(C(F)(F)F)cc2C(F)(F)F)nn1-c1ccccc1Cl [I-1-11] | 100% | 4.12 | –
10 | – | Cc1cc(Cl)cc(C(=O)NC(C)C)c1NC(=O)c1cc(Cn2cc(C(F)(F)C(F)(F)F)c(C(F)(F)C(F)(F)F)n2)nn1-c1ncccc1Cl [I-1-12] | 100% | 4.89 | –
11 | – | CNC(=O)c1cc(Cl)cc(C)c1NC(=O)c1cc(Cn2cc(I)c(C(F)(F)C(F)(F)F)n2)nn1-c1ncccc1Cl [I-1-16] | 100% | 3.79 | –
12 | – | CNC(=O)c1cc(Cl)cc(C)c1NC(=O)c1cc(Cn2cc(Cl)c(C(F)(F)F)n2)nn1-c1ncccc1Cl [I-1-17] | 100% | 3.35 | –
13 | – | Cc1cc(Cl)cc(C(=O)NC(C)C)c1NC(=O)c1cc(Cn2ccc(C(F)(F)C(F)(F)F)n2)nn1-c1ncccc1Cl [I-1-18] | 100% | 3.75 | –
14 | – | CNC(=O)c1cc(Cl)cc(C)c1NC(=O)c1cc(Cn2ccc(C(F)(F)C(F)(F)F)n2)nn1-c1ncccc1Cl [I-1-19] | 100% | 3.29 | –
15 | – | Cc1cc(Br)cc(C(=O)NC(C)C)c1NC(=O)c1cc(Cn2nc(C(F)(F)F)cc2C(F)(F)F)nn1-c1ncccc1Cl [I-1-20] | 100% | 4.16 | –
16 | – | Cc1cc(Cl)cc(C(=O)NC(C)C)c1NC(=O)c1cc(Cn2cncn2)nn1-c1ncccc1Cl [I-1-21] | 100% | 2.02 | –
17 | – | Cc1cc(Cl)cc(C(=O)NC(C)C)c1NC(=O)c1cc(Cn2nc(C(F)(F)C(F)(F)F)nc2C(F)(F)F)nn1-c1ncccc1Cl [I-1-23] | 100% | 4.25 | –
18 | – | CNC(=O)c1cc(Br)cc(C)c1NC(=O)c1cc(Cn2nc(C(F)(F)C(F)(F)F)cc2C(F)(F)C(F)(F)F)nn1-c1ncccc1Cl [I-1-24] | 100% | 4.49 | –

Row | logP [2, 3] | SMILES | Kill level after 7 d in % ([1]; 100 g/ha) | logP ([2]; HPLC on reverse-phase column) | further results
19 | – | CNC(=O)c1cc(Br)cc(C)c1NC(=O)c1cc(Cn2cc(C(F)(F)C(F)(F)F)c(C(F)(F)C(F)(F)F)n2)nn1-c1ncccc1Cl [I-1-25] | 100% | 4.39 | –
20 | 2.83 | CNC(=O)c1cc(Cl)cc(Cl)c1NC(=O)c1cc(Cn2nc(C(F)(F)F)nc2C(F)(F)F)nn1C1CCCO1 (stereo not shown) [I-2-5] | – | – | –
21 | 2.99 | CNC(=O)c1cc(Cl)cc(Cl)c1NC(=O)c1cc(Cn2nc(C(F)(F)F)nc2C(F)(F)F)nn1C1CCOC1 (stereo not shown) [I-2-6] | – | – | –
22 | 4.68 | CC(C)NC(=O)c1cc(Cl)cc(Cl)c1NC(=O)c1cc(Cn2nc(C(F)(F)F)cc2C(F)(F)F)nn1-c1ncc(C(F)(F)F)cc1Cl [I-2-8] | – | – | –
23 | 4.98 | Cc1cc(I)cc(C(=O)NC(C)C)c1NC(=O)c1cc(Cn2nc(C(F)(F)F)cc2C(F)(F)F)nn1-c1ncc(C(F)(F)F)cc1Cl [I-2-9] | – | – | –
24 | 4.73 | Cc1cc(I)cc(C(=O)NC2CC2)c1NC(=O)c1cc(Cn2nc(C(F)(F)F)cc2C(F)(F)F)nn1-c1ncc(C(F)(F)F)cc1Cl [I-2-10] | – | – | –
25 | 4.78 | Cc1cc(Cl)cc(C(=O)NC(C)C)c1NC(=O)c1cc(Cn2nc(C(F)(F)F)cc2C(F)(F)F)nn1-c1ncc(C(F)(F)F)cc1Cl [I-2-11] | – | – | –
26 | 4.52 | Cc1cc(Cl)cc(C(=O)NC2CC2)c1NC(=O)c1cc(Cn2nc(C(F)(F)F)cc2C(F)(F)F)nn1-c1ncc(C(F)(F)F)cc1Cl [I-2-12] | – | – | –
27 | 4.46 | O=C(NC1CC1)c1cc(Cl)cc(Cl)c1NC(=O)c1cc(Cn2nc(C(F)(F)F)cc2C(F)(F)F)nn1-c1ncc(C(F)(F)F)cc1Cl [I-2-13] | – | – | –
28 | 5.27 | Cc1cc(Cl)cc(C(=O)NC(C2CC2)C2CC2)c1NC(=O)c1cc(Cn2nc(C(F)(F)F)cc2C(F)(F)F)nn1-c1ncc(C(F)(F)F)cc1Cl [I-2-14] | – | – | –
29 | 4.04 | Cc1cc(Cl)cc(C(=O)NC(C)C2CC2)c1NC(=O)c1cc(Cn2nc(C(F)(F)F)cc2C(F)(F)F)nn1-c1ncc(C(F)(F)F)cc1Cl (stereo not shown) [I-2-15] | – | – | –
30 | 5.12 | Cc1cc(Cl)cc(C(=O)NC(C)(C)C)c1NC(=O)c1cc(Cn2nc(C(F)(F)F)cc2C(F)(F)F)nn1-c1ncc(C(F)(F)F)cc1Cl [I-2-16] | – | – | –
31 | 4.23 | Cc1cc(Cl)cc(C(=O)NCC#N)c1NC(=O)c1cc(Cn2nc(C(F)(F)F)cc2C(F)(F)F)nn1-c1ncc(C(F)(F)F)cc1Cl [I-2-18] | – | – | –
32 | 4.11 | Cc1cc(F)cc(C(=O)NC2CC2)c1NC(=O)c1cc(Cn2nc(C(F)(F)F)cc2C(F)(F)F)nn1-c1ncc(C(F)(F)F)cc1Cl [I-2-19] | – | – | –
33 | 4.47 | Cc1cc(F)cc(C(=O)NC(C)C)c1NC(=O)c1cc(Cn2nc(C(F)(F)F)cc2C(F)(F)F)nn1-c1ncc(C(F)(F)F)cc1Cl [I-2-20] | – | – | –
34 | 4.75 | Cc1cc(Br)cc(C(=O)NC(C)C)c1NC(=O)c1cc(Cn2nc(C(F)(F)F)cc2C(F)(F)F)nn1-c1ncc(C(F)(F)F)cc1Cl [I-2-21] | – | – | –
35 | 4.63 | Cc1cc(Br)cc(C(=O)NC2CC2)c1NC(=O)c1cc(Cn2nc(C(F)(F)F)cc2C(F)(F)F)nn1-c1ncc(C(F)(F)F)cc1Cl [I-2-24] | – | – | –
36 | 4.08 | CC(C)NC(=O)c1cc2ccccc2c(Cl)c1NC(=O)c1cc(Cn2nc(C(F)(F)F)cc2C(F)(F)F)nn1-c1ncccc1Cl [I-3-1] | – | – | –

Row | SMILES | logP [2, 3] | Kill level after 7 d in % ([1]; 100 g/ha) | logP ([2]; HPLC on reverse-phase column) | further results
37 | Cc1cc(Cl)cc(C(N)=O)c1NC(=O)c1cc(Cn2nc(C(F)(F)F)cc2C(F)(F)F)nn1-c1ncc(C(F)(F)F)cc1Cl [I-2-17] | 4.09 | – | – | –
38 | CNC(=O)c1cc(Cl)cc(C)c1NC(=O)c1cc(Cn2nc(C(F)(F)F)cc2C(F)(F)F)nn1-c1ncc(C(F)(F)F)cc1Cl [I-2-22] | 3.53 | – | – | –
39 | CNC(=O)c1cc(Cl)cc(Cl)c1NC(=O)c1cc(Cn2nc(C(F)(F)F)cc2C(F)(F)F)nn1-c1ncc(C(F)(F)F)cc1Cl [I-2-23] | 3.54 | – | – | –

Source: patent US8101550B2, “Anthranilic acid diamide derivative with hetero-aromatic and hetero-cyclic substituents” (Bayer Cropscience AG, priority 2006, dated 2012)
